Results on eleven compounds are retold here after ChEMBL document CHEMBL1201862, “PubChem BioAssay data set” (2004).

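Step 1: Grow cells in 96-well plates. Step 2: Expose to compound for 48 hours at 5 concentrations. Step 3: Interpolate endpoints linearly; if unreached, use highest concentration. At the GI50, growth is halved.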 The source made the active and inactive calls. Rule as the data show it: active = GI50 up to about 1.1 µM and inactive = higher.

Test systems include U-251; UACC-62; SF-268; T47D; DU-145; BT-549; CCRF-CEM; NCI-H460; NCI/ADR-RES; MOLT-4; HCT-116; SW-620; KM12; MCF7; UO-31; A498; SK-MEL-5; HL-60; SR; Malme-3M.
What all share (test): inhibition of tumour cell growth, NCI panel, 48 h

Regarding `COc1ccc2c(c1)OC1c3ccccc3OCC21` (stereo unspecified), the GI50 in the test with U-251 was > 100 µM (inactive); in the test on UACC-62, > 100 µM (inactive); in the test with SF-268 it was 32.8 µM (inactive); with T47D it was 72.6 µM (inactive); in the test on DU-145, > 100 µM (inactive); with BT-549 it was 59.7 µM (inactive). Also, the GI50 with CCRF-CEM was 58.7 µM (inactive); in the test on NCI-H460, 61.9 µM (inactive); in the test with NCI/ADR-RES, 60.3 µM (inactive); in the test with MOLT-4 it was 27.7 µM (inactive); with HCT-116, 77.3 µM (inactive); with SW-620 it was 96.8 µM (inactive). Besides, the GI50 is 28.4 µM (inactive) in the test with KM12; 88.1 µM (inactive) in the test with MCF7; 48.9 µM (inactive) with UO-31; > 100 µM (inactive) in the test with A498; 24.7 µM (inactive) with SK-MEL-5; 34.6 µM (inactive) in the test on HL-60.

Consider `Cc1cc2nnn(C3CCCCO3)c2cc1C` (stereo unspecified), for which the GI50 in the test with U-251 is > 100 µM (inactive); in the test with UACC-62, > 100 µM (inactive); in the test with T47D, 95.5 µM (inactive); in the test on DU-145, > 100 µM (inactive); in the test on BT-549, > 100 µM (inactive); in the test with CCRF-CEM, > 100 µM (inactive). The GI50 in the test on NCI-H460, with NCI/ADR-RES, in the test with MOLT-4, with HCT-116, in the test with KM12 and in the test with MCF7 was > 100 µM (inactive) in each case. For the same compound, the GI50 in the test with UO-31 is 98.2 µM (inactive); in the test on SR it was > 100 µM (inactive); with SK-MEL-5 it was > 100 µM (inactive); in the test with Malme-3M, > 100 µM (inactive).

Regarding `CC(=O)C(I(OS(=O)(=O)c1ccc(C)cc1)c1ccccc1)=P(c1ccccc1)(c1ccccc1)c1ccccc1`, the GI50 with U-251 is 29.2 µM (inactive); in the test on UACC-62, 1.06 µM (active); in the test with SF-268 it was 23.7 µM (inactive); with T47D, 27 µM (inactive); in the test with DU-145 it was 18.8 µM (inactive); with BT-549, 18.9 µM (inactive). Moreover, the GI50 in the test on CCRF-CEM was 26.9 µM (inactive); with NCI-H460 it was 58.5 µM (inactive); in the test on NCI/ADR-RES, > 100 µM (inactive); in the test on MOLT-4, 26.4 µM (inactive); in the test on HCT-116, 21.2 µM (inactive); in the test with KM12, 16.2 µM (inactive). The GI50 in the test on MCF7 was 35.8 µM (inactive); in the test on UO-31, > 100 µM (inactive); in the test with A498 it was > 100 µM (inactive); in the test with SK-MEL-5, 22.1 µM (inactive); in the test on Malme-3M, 14.8 µM (inactive); in the test with HL-60, 30.3 µM (inactive).

On to `COC(=O)c1cc(OC)c(OC)c(OC)c1-c1cc2c(cc1C=O)OCO2`, for which the GI50 with U-251, with UACC-62, in the test on SF-268, with T47D, in the test with DU-145 and in the test with BT-549 was > 10 µM (inactive) in each case. Also, the GI50 in the test with CCRF-CEM, in the test on NCI-H460, in the test with NCI/ADR-RES, in the test with MOLT-4, in the test with HCT-116 and in the test with SW-620 was > 10 µM (inactive) each time. In addition, the GI50 in the test on KM12, in the test on MCF7, in the test with UO-31, with A498, in the test with SK-MEL-5 and with Malme-3M was > 10 µM (inactive) each time. For the same compound, in the test on HL-60, the GI50 is > 10 µM (inactive).

Consider `CN1CCc2c(sc3ncn(Nc4ccc(Cl)cc4)c(=N)c23)C1`, for which the GI50 in the test on U-251, in the test on UACC-62, in the test on SF-268, in the test with T47D, with DU-145 and with BT-549 was > 100 µM (inactive) throughout. Further, the GI50 with CCRF-CEM, in the test on NCI-H460, in the test on NCI/ADR-RES, with MOLT-4, with HCT-116 and in the test with SW-620 was > 100 µM (inactive) throughout. The GI50 in the test on KM12, with MCF7, in the test with A498, with SK-MEL-5, with Malme-3M and in the test on HL-60 was > 100 µM (inactive) each time.

For `Cc1cc2c(cc1C)[n+]([O-])c(N1CCN(c3ccc([N+](=O)[O-])cc3)CC1)c(C#N)[n+]2[O-]`, the GI50 was 17 µM (inactive) in the test on U-251; 20.3 µM (inactive) in the test on UACC-62; 41.7 µM (inactive) in the test on SF-268; 16.3 µM (inactive) in the test with T47D; 32.8 µM (inactive) in the test with DU-145; 32.4 µM (inactive) in the test on BT-549. Also, the GI50 is > 100 µM (inactive) with CCRF-CEM; 20.3 µM (inactive) with NCI-H460; 26.2 µM (inactive) with NCI/ADR-RES; 61.7 µM (inactive) in the test on HCT-116; > 100 µM (inactive) with SW-620; > 100 µM (inactive) in the test with KM12. Moreover, the GI50 in the test on MCF7 is 28.6 µM (inactive); with UO-31, 23.5 µM (inactive); in the test on A498 it was 35 µM (inactive); with SK-MEL-5, 75.7 µM (inactive); in the test on Malme-3M it was 69.5 µM (inactive); with HL-60, > 100 µM (inactive).

Consider `CCOC(=O)NC(=S)NC(C)c1ccccc1` (stereo unspecified), for which the GI50 is > 100 µM (inactive) with U-251; > 100 µM (inactive) in the test on UACC-62; > 100 µM (inactive) with SF-268; 98.6 µM (inactive) with T47D; > 100 µM (inactive) with DU-145; > 100 µM (inactive) with BT-549. For the same compound, the GI50 was > 100 µM (inactive) with CCRF-CEM; > 100 µM (inactive) with NCI/ADR-RES; 26.4 µM (inactive) in the test with MOLT-4; > 100 µM (inactive) in the test on HCT-116; > 100 µM (inactive) in the test on SW-620; > 100 µM (inactive) with KM12. Further, the GI50 was > 100 µM (inactive) with MCF7; 70.6 µM (inactive) with UO-31; 56.6 µM (inactive) in the test with SR; > 100 µM (inactive) in the test on SK-MEL-5; > 100 µM (inactive) in the test on Malme-3M.

With `O=C1OC(c2ccc(Cl)cc2)=N/C1=C\c1ccccc1`, the GI50 in the test with U-251, in the test on UACC-62, with SF-268, in the test with T47D, in the test with DU-145 and in the test on BT-549 was > 100 µM (inactive) in each case. For the same compound, the GI50 in the test with CCRF-CEM was 39.5 µM (inactive); with NCI-H460 it was > 100 µM (inactive); in the test on NCI/ADR-RES, 78 µM (inactive); with HCT-116, > 100 µM (inactive); with SW-620 it was > 100 µM (inactive); in the test on KM12 it was > 100 µM (inactive). For the same compound, the GI50 with MCF7 is > 100 µM (inactive); in the test with UO-31, > 100 µM (inactive); in the test with SR, > 100 µM (inactive); with SK-MEL-5 it was > 100 µM (inactive); in the test on HL-60, 62.7 µM (inactive).

For the compound `CC(C)=CCC/C(C)=C/CC/C(C)=C/CSc1ccccc1C(=O)O` [SALIRASIB], the GI50 in the test on U-251 was 20.2 µM (inactive); in the test on UACC-62, 17.7 µM (inactive); in the test with SF-268 it was 16.6 µM (inactive); with T47D, > 10 µM (inactive); in the test with DU-145 it was 18.2 µM (inactive); with BT-549, 16.7 µM (inactive). Moreover, the GI50 in the test with CCRF-CEM was 28.3 µM (inactive); with NCI-H460, 17.4 µM (inactive); in the test with NCI/ADR-RES, 22.5 µM (inactive); in the test on MOLT-4, 23.5 µM (inactive); with HCT-116 it was 16.7 µM (inactive); with SW-620, 35.9 µM (inactive). For the same compound, the GI50 with KM12 was 17.6 µM (inactive); with MCF7 it was 24.8 µM (inactive); with UO-31, > 10 µM (inactive); in the test with A498 it was 23.7 µM (inactive); in the test on SK-MEL-5 it was 14.8 µM (inactive); in the test on HL-60, 29.7 µM (inactive).

For `C=C1C(=O)OC2/C=C(/C)C(OC(C)=O)C/C=C(\C)C(OC(=O)C3(C)OC3C)C(O)C12` (stereo unspecified), the GI50 in the test with U-251 is > 100 µM (inactive); in the test with UACC-62, > 100 µM (inactive); in the test with SF-268 it was > 100 µM (inactive); in the test with T47D, > 100 µM (inactive); with DU-145, > 100 µM (inactive); with BT-549 it was 65.6 µM (inactive). Moreover, the GI50 was 34 µM (inactive) with CCRF-CEM; > 100 µM (inactive) with NCI-H460; > 100 µM (inactive) in the test with NCI/ADR-RES; 36.9 µM (inactive) in the test on MOLT-4; 39.7 µM (inactive) with HCT-116; 42.4 µM (inactive) in the test with SW-620. Also, the GI50 with KM12 is > 100 µM (inactive); in the test with MCF7 it was 51.1 µM (inactive); in the test with SR it was 39.4 µM (inactive); in the test on A498, > 100 µM (inactive); in the test with SK-MEL-5 it was > 100 µM (inactive); in the test with HL-60, 30.3 µM (inactive).

For `O=C(O)CCCc1ccc2ccccc2c1`, the GI50 in the test with U-251, in the test on UACC-62, with SF-268, with T47D, with DU-145 and in the test with BT-549 was > 100 µM (inactive) in each case. Further, the GI50 with CCRF-CEM, with NCI-H460, in the test on NCI/ADR-RES, in the test on MOLT-4, with HCT-116 and in the test with SW-620 was > 100 µM (inactive) in each case. In addition, the GI50 in the test on KM12 was > 100 µM (inactive); in the test on MCF7, > 100 µM (inactive); in the test on UO-31, > 100 µM (inactive); in the test on SR, 97.9 µM (inactive); in the test with A498 it was > 100 µM (inactive); with SK-MEL-5, > 100 µM (inactive). Also, in the test on HL-60, the GI50 is > 100 µM (inactive).
